Assay results taken from article PMC4815073, “Targeting of tubulin polymerization and induction of mitotic blockage by Methyl 2-(5-fluoro-2-hydroxyphenyl)-1H-benzo[d]imidazole-5-carboxylate (MBIC) in human cervical cancer HeLa cell” (Journal of Experimental & Clinical Cancer Research : CR, 2016).

Tested on: HeLa cells
Experiment: Drug combination assay (MTT, Chou-Talalay, CampuSyn)
Assay type: cell-based
Details: Homo sapiens, 24 h, drug alone, read-out: (Dm)IC50 Drug 2 (MBIC alone)
Procedure: In order to discover the synergistic effects of MBIC with conventional drugs briefly, cells were seeded in 1 × 10^4 cells/well and were incubated at 37 °C overnight. […] Also, the MBIC, combined with each of the selected conventional drugs in a 1:1 ratio, were diluted in concentration from 50 μM to 0.1 μM. Cell viability assay (MTT assay) was performed 24 h post-treatment and absorbance were measured in a microplate reader to find out the IC50 for each conventional drug alone and in combination with MBIC on HeLa cells. For this analysis, we used the commercial software package CampuSyn (Biosoft, Cambridge, United Kingdom; Ref.9). […] Furthermore, the software produced an automated isobologram and fraction affected-combination index (Fa-CI) plot.

## COC(=O)c1ccc2[nH]c(-c3cc(F)ccc3O)nc2c1 [MBIC, Methyl 2-(5-fluoro-2-hydroxyphenyl)-1H-benzo[d]imidazole-5-carboxylate]
  IC50: 210 ± 20 nM
